Results taken from patent publication US7598245B2 (Vertex Pharmaceuticals Incorporated, priority 2003, dated 2009).

Assays:
Type in all cases: biochemical
human Src kinase = target: T1, human Src kinase (Homo sapiens, UniProt P12931); experiment: Src inhibition assay B: spectrophotometric (uv-vis) coupled enzyme assay; settings: 100 μM ATP
T1 construct: 25 nM of recombinant human Src kinase
Description: The compounds are evaluated as inhibitors of human Src kinase using either a radioactivity-based assay or spectrophotometric assay.
Src Inhibition Assay B: Spectrophotometric Assay
The ADP produced from ATP by the human recombinant Src kinase-catalyzed phosphorylation of poly Glu-Tyr substrate is quantified using a coupled enzyme assay [Fox et al. Protein Sci. 1998, 7, 2249]. In this assay one molecule of NADH is oxidised to NAD for every molecule of ADP produced in the kinase reaction. The disappearance of NADH is conveniently followed at 340 nm.
The following are the final concentrations of the assay components: 0.025 M HEPES (pH 7.6), 10 mM MgCl2, 2 mM DTT, 0.25 mg/ml poly Glu-Tyr, and 25 nM of recombinant human Src kinase. Final concentrations of the components of the coupled enzyme system are 2.5 mM phosphoenolpyruvate, 200 μM NADH, 30 μg/ml pyruvate kinase and 10 μg/ml lactate dehydrogenase.
In a typical assay, all the reaction components with the exception of ATP are pre-mixed and aliquoted into assay plate wells. Inhibitors dissolved in DMSO are added to the wells to give a final DMSO concentration of 2.5%. The assay plate is incubated at 30° C. for 10 min before initiating the reaction with 100 μM ATP. The absorbance change at 340 nm with time, the rate of the reaction, is monitored on a molecular devices plate reader. The data of rate as a function of the inhibitor concentration is fitted to competitive inhibition kinetics model to get the Ki for the compound.

PDK-1 = target: T2, PDK-1 (Homo sapiens, UniProt O15530); experiment: PDK-1 inhibition, radioactive-phosphate incorporation assay; settings: 40 μM ATP
T2 sequence (O15530 1-556): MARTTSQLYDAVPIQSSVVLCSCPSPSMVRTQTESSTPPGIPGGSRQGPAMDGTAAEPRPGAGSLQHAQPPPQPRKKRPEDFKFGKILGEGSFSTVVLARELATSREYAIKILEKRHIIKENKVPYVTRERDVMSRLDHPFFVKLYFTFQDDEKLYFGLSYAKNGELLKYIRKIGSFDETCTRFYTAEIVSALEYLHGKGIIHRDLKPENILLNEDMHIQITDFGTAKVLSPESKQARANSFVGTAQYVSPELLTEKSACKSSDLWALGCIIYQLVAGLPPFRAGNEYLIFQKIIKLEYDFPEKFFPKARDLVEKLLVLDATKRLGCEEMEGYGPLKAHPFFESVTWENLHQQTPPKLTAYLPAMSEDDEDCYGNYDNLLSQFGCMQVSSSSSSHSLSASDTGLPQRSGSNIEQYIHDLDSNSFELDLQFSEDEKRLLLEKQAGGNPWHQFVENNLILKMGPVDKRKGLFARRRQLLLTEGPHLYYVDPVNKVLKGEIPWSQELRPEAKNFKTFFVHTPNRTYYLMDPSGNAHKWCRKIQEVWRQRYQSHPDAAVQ
Description: Compounds were screened for their ability to inhibit PDK-1 using a radioactive-phosphate incorporation assay (Pitt and Lee, J. Biomol. Screen., (1996) 1, 47). Assays were carried out in a mixture of 100 mM HEPES (pH 7.5), 10 mM MgCl2, 25 mM NaCl, 2 mM DTT. Final substrate concentrations in the assay were 40 μM ATP (Sigma Chemicals) and 65 μM peptide (PDKtide, Upstate, Lake Placid, N.Y.). Assays were carried out at 30° C. and 25 nM PDK-1 in the presence of ˜27.5 nCi/μL of [γ-^32P]ATP (Amersham Pharmacia Biotech, Amersham, UK). An assay stock buffer solution was prepared containing all of the reagents listed above, with the exception of ATP, and the test compound of interest. 15 μl of the stock solution was placed in a 96 well plate followed by addition of 1 μl of 0.5 mM DMSO stock containing the test compound (final compound concentration 25 μM, final DMSO concentration […]). The plate was preincubated for about 10 minutes at 30° C. and the reaction initiated by addition of 4 μl ATP (final concentration 40 μM).
The reaction was stopped after 10 minutes by the addition of 100 μL 100 mM phosphoric acid, 0.01% Tween-20. A phosphocellulose 96 well plate (Millipore, Cat no. MAPHNOB50) was pretreated with 100 μL 100 mM phosphoric acid, 0.01% Tween-20 prior to the addition of the reaction mixture (100 μL). The spots were left to soak for at least 5 minutes, prior to wash steps (4×200 μL 100 mM phosphoric acid, 0.01% Tween-20). After drying, 20 μL Optiphase ‘SuperMix’ liquid scintillation cocktail (Perkin Elmer) was added to the well prior to scintillation counting (1450 Microbeta Liquid Scintillation Counter, Wallac).

Aurora-2 = target: T3, Aurora-2 (Homo sapiens, UniProt O14965); experiment: Inhibition of AUR-2, coupled enzyme assay
T3 construct: addition of 10 μL of Aurora-2 stock solution to give a final concentration of 70 nM
T3 sequence (O14965 1-403): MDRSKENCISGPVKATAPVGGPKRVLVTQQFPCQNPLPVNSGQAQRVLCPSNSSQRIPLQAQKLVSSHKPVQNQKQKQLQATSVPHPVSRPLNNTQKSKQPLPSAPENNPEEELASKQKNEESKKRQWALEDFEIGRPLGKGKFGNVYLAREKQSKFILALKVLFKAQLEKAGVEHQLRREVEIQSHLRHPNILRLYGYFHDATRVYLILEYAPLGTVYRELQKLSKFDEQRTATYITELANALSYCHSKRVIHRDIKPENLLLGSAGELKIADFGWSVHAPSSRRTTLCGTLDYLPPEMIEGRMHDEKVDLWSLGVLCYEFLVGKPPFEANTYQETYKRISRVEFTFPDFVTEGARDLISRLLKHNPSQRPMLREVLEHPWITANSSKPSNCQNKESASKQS
Description: Compounds are screened in the following manner for their ability to inhibit Aurora-2 using a standard coupled enzyme assay (Fox et al (1998) Protein Sci 7, 2249). To an assay stock buffer solution containing 0.1M HEPES 7.5, 10 mM MgCl2, 1 mM DTT, 25 mM NaCl, 2.5 mM phosphoenolpyruvate, […], 30 mg/ml pyruvate kinase, 10 mg/ml lactate dehydrogenase, 40 mM ATP, and 800 μM peptide (LRRASLG, American Peptide, Sunnyvale, Calif.) is added a DMSO solution of a compound of the present invention to a final concentration of 30 μM. The resulting mixture is incubated at 30° C. for 10 min. The reaction was initiated by the addition of 10 μL of Aurora-2 stock solution to give a final concentration of 70 nM in the assay. The rates of reaction are obtained by monitoring absorbance at 340 nm over a 5 minute read time at 30° C. using a BioRad Ultramark plate reader (Hercules, Calif.). The Ki values are determined from the rate data as a function of inhibitor concentration.

JAK-3 = target: T4, JAK-3 (Homo sapiens, UniProt P52333); experiment: JAK3 inhibition assay (ELISA, Poly (Glu, Ala, Tyr) coated plates); settings: 2 μM ATP
T4 sequence (P52333 1-1124): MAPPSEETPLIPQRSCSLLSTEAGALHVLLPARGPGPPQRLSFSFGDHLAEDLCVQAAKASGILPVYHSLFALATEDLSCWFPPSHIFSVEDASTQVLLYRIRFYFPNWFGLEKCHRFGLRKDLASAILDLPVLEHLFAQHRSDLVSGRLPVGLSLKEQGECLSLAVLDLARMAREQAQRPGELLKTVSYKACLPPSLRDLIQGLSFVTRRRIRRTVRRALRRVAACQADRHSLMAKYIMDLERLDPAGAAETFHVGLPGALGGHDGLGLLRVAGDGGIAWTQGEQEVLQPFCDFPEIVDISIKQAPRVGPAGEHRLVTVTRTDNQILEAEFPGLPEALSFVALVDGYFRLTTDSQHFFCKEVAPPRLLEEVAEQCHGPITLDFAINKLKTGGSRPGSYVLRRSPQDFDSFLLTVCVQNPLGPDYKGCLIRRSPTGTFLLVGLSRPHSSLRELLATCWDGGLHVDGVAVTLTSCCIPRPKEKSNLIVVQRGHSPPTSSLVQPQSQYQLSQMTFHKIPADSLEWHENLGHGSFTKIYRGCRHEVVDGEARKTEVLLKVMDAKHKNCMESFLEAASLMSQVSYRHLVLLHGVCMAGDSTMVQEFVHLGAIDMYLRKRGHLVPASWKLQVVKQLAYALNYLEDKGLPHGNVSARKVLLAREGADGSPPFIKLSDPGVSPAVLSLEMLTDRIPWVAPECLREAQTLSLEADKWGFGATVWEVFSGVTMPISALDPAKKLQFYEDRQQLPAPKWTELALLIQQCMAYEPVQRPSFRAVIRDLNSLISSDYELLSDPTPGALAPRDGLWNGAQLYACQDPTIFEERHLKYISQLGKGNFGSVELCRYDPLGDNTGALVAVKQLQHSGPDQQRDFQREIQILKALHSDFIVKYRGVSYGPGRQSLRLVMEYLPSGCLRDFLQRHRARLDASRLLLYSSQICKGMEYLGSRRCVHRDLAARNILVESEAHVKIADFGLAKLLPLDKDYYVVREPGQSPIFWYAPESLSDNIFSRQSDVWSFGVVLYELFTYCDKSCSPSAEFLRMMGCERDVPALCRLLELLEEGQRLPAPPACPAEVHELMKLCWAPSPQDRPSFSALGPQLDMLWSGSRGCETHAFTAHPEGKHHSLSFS
Description: Compound inhibition of JAK was assayed by the method described by G. R. Brown, et al, Bioorg. Med. Chem. Lett. 2000, vol. 10, pp 575-579 in the following manner. Into Maxisorb plates, previously coated at 4° C. with Poly (Glu, Ala, Tyr) 6:3:1 then washed with phosphate buffered saline 0.05% and Tween-(PBST), was added 2 μM ATP, 5 mM MgCl2, and a solution of compound in DMSO. The reaction was started with JAK enzyme and the plates incubated for 60 minutes at 30° C. The plates were then washed with PBST, 100 μL HRP-Conjugated 4G10 antibody was added, and the plate incubated for 90 minutes at 30° C. The plate was again washed with PBST, 100 μL TMB solution is added, and the plates were incubated for another 30 minutes at 30° C. Sulfuric acid (100 μL of 1M) was added to stop the reaction and the plate is read at 450 nm to obtain the optical densities for analysis to determine Ki values.

T1 sequence (P12931 whole entry): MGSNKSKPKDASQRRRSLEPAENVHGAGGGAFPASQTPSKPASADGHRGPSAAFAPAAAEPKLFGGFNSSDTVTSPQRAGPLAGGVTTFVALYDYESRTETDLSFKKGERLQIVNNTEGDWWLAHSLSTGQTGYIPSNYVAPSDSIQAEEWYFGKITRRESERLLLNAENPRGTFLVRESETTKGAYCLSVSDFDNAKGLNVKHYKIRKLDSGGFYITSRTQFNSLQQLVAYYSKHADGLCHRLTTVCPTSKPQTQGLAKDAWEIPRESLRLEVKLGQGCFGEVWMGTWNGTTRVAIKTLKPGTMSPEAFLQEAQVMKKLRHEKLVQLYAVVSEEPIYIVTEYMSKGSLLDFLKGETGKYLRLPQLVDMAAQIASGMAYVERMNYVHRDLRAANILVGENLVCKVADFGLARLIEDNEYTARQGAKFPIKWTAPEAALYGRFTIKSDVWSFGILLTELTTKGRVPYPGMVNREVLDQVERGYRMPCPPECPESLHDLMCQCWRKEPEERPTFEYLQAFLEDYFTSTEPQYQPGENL

SMILES | Ki (human Src kinase) [nM] | Ki (PDK-1) [nM] | Ki (Aurora-2) [nM] | Ki (JAK-3) [nM]
c1ccc(Nc2ncn(-c3cc(N[C@H]4CCCNC4)ncn3)n2)cc1 [Compound I-103, [6-(3-Phenylamino-[1,2,4]triazol-1-yl)-pyrimidin-4-yl]-piperidin-3-yl-amine] | < 500 | < 1000 | 100 to 1000 | 
NS(=O)(=O)c1ccc(Nc2ncn(-c3ccnc(N[C@H]4CCCNC4)c3)n2)cc1 [Compound I-104, 3-(S)-{4-[3-(4-Sulfamoyl-phenylamino)-[1,2,4]triazol-1-yl]-pyridin-2-ylamino}-piperidine] |  | < 1000 |  | 
CCCN(CC1CC1)c1cc(-n2cnc(Nc3ccccc3)n2)ccn1 [Compound I-125, cyclopropylmethyl-[4-(3-phenylamino-[1,2,4]triazol-1-yl)-pyridin-2-yl]-propyl-amine] | > 1000 |  |  | 
CC1CCCCN1c1cc(-n2cnc(Nc3ccccc3)n2)ccn1 (centres unmarked) [Compound I-126, [1-(2-methyl-3,4,5,6-tetrahydro-2H-[1,2′]bipyridinyl-4′-yl)-1H-[1,2,4]triazol-3-yl]-phenyl-amine] | > 1000 |  |  | 
CN(c1cc(-n2cnc(Nc3ccccc3)n2)ccn1)C1CCCCC1 [Compound I-133] | > 1000 |  |  | > 1000
